Source: PMC8587047, “Synthesis and Biological Evaluation of Harmirins, Novel Harmine–Coumarin Hybrids as Potential Anticancer Agents” (Molecules, 2021)
Like-named read-outs stand apart in the source and are kept apart here.

Legend:
HepG2 = experiment: MTT cytotoxicity assay, HepG2; type: cell-based; details: Homo sapiens, read-out: IC50 HepG2
From the text: (§1) We selected four different cancer cell lines for antiproliferative screening in vitro, which we believed would provide sufficient data on the anticancer potential of the prepared harmirins (hepatocellular carcinoma—HepG2, colorectal adenocarcinoma, Dukes’ type C—SW620, colorectal carcinoma—HCT116, and breast adenocarcinoma—MCF-7). Additionally, we included one non-cancer cell line (embryonic kidney—HEK293T) to evaluate harmirins’ selectivity. The commonly used anticancer drug 5-FU and harmine were used as positive controls. Pre-screening was performed using 50 µM of the tested compound. Only compounds that led to more than 50% reduction in mitochondrial metabolic activity at 50 µM concentration were selected for further analysis. The selectivity index (SI) for each harmirin was calculated as a fractional ratio between the IC50 values for HEK293T and the cancer cell line MCF-7 or HCT116 since these two cell lines were the most susceptible to harmirins.
(§2) The experiments were carried out on five human cell lines purchased from American Type Culture Collection (ATCC, PO BOX 1549, manassas, VA 20108, USA): HepG2 (hepatocellular carcinoma; ATCC® HB-8065™), SW620 (colorectal adenocarcinoma; ATCC® CCL-227™), HCT116 (colorectal carcinoma ATCC® CCL-247™), MCF-7 (breast adenocarcinoma, ATCC® HTB-22™), and HEK293T (embryonic kidney cells; ATCC® CRL-3216™). All cell lines were cultured as monolayers and maintained in Dulbecco’s modified Eagle medium (DMEM) (Capricorn Scientific, USA), supplemented with 10% fetal bovine serum (FBS) (Capricorn Scientific, USA), 100 U/mL penicillin, and 100 µg/mL streptomycin (Capricorn Scientific, USA) in a humidified atmosphere with 5% CO2 at 37 °C. Cells were seeded in 96-well plates (Corning, Durham, NC, USA) at 5000–7000 cells per well (depending on the cell doubling time of a specific cell line) in 0.1 mL media and cultured for 24 h. The next day, the medium was aspirated, and cells were treated for 72 h. Only the compounds that led to more than a 50% reduction in mitochondrial metabolic activity at a concentration of 50 µM were selected for further analysis. The following concentrations of selected compounds were used: 25, 10, 5, and 1 µM. Working dilutions were freshly prepared on the day of the testing. A fresh growth medium was added to untreated control cells, which were defined as 100% viable. DMSO (0.13%) in DMEM was considered a negative control. 5-Fluorouracil (5-FU) and harmine were used as positive controls. At the end of treatment, media was removed, and cells were incubated for 1 h with 0.5 mg/mL MTT (Abcam, Cambridge, MA, USA) dissolved in serum-deprived DMEM. The absorbance was directly proportional to cell viability. The MTT-containing media was then removed, and 0.1 mL isopropanol was added per well to lyse cells and dissolve formazan. The optical density was measured at 570 nm using a microplate reader (VICTOR3, PerkinElmer). Each test point was performed in triplicate. The IC50 values (concentration required to decrease viability by 50%) were calculated by using nonlinear regression on the sigmoidal dose–response plots and are expressed as mean ± SD.

SW620 = experiment: MTT cytotoxicity assay, SW620; type: cell-based; details: Homo sapiens, read-out: IC50 SW620
From the text: as §1, §2

HCT116 = experiment: MTT cytotoxicity assay, HCT116; type: cell-based, human; details: for IC50: Homo sapiens, read-out: IC50 HCT116; for SI (HCT116): ratio IC50 HEK293T / IC50 HCT116
From the text: as §1, §2

MCF-7 = experiment: MTT cytotoxicity assay, MCF-7; type: cell-based, human; details: for IC50: Homo sapiens, read-out: IC50 MCF-7; for SI (MCF-7): ratio IC50 HEK293T / IC50 MCF-7
From the text: as §1, §2

HEK293T = experiment: MTT cytotoxicity assay, HEK293T (non-cancer); type: cell-based, human; details: for IC50: Homo sapiens, HEK-293T, 72 h, read-out: IC50 Hek293T
From the text: as §1, §2

MCF-7 cells = experiment: Cell cycle analysis by flow cytometry (PI); type: cell-based, human; details: harmine 20 µM
Description: To gain further insight into the potential mechanism of activity of 12b, and to examine whether and how the cell growth inhibition was associated with cell cycle regulation, we assessed its influence on the cell cycle of MCF-7 cells, 24 and 48 h after the treatment and compared it with the influence of the reference compound harmine (Figure 4).
MCF-7 cells were seeded onto 6-well plates (3 × 10^5 cells per well). After 24 h, 12b was added at 10 µM concentration and harmine at 20 µM concentration. After 24 h or 48 h, the attached cells were trypsinized, combined with floating cells, washed with phosphate buffer saline (PBS), fixed with 70% ethanol, and stored at −20 °C. Immediately before analysis, the cells were washed with PBS and stained with 50 μg/mL of propidium iodide (PI) with the addition of 0.1 μg/μL of RNAse A. The stained cells were then analyzed by BD FACScalibur flow cytometer (20,000 counts were measured). The percentage of cells in each cell cycle phase was determined using FlowJo software (TreeStar Inc., USA). The tests were performed in duplicate and repeated in three separate experiments.

HT-29 = tested on: HT-29; design: method as in PMID 26657602; details: read-out: IC50 against HT-29; cited from earlier work
HGC-27 = tested on: HGC-27; design: method as in PMID 26657602; details: read-out: IC50 against HGC-27; cited from earlier work
HeLa = tested on: HeLa; design: method as in doi:10.1002/slct.201601020; details: read-out: GI50 against HeLa; cited from earlier work
[1] = 12b 10 µM, after 24 h (12b: persisted after 48 h)
[2] = MTT, mean ± SD, non-cancer cell line

SMILES	SI (HCT116) (HCT116)	SI (MCF-7) (MCF-7)	IC50 (HepG2; HepG2, MTT, 72 h, mean ± SD)	IC50 (SW620; SW-620, MTT, 72 h, mean ± SD)	IC50 (HCT116; HCT-116, MTT, 72 h, mean ± SD)	IC50 (HEK293T; [2])	melting point	IC50 (MCF-7; MCF7, MTT, 72 h, mean ± SD)	further results
COc1ccc2c(c1)[nH]c1c(C)nccc12 [HAR, harmine]	3.2	0.9							IC50 (HepG2; HepG2, 72 h): 18.7 ± 0.8 µM; IC50 (SW620; SW-620, 72 h): 4.7 ± 0.6 µM; IC50 (HCT116; HCT-116, 72 h): 4 ± 0.8 µM; IC50 (MCF-7; MCF7, 72 h): 13.5 ± 1.1 µM; IC50 (HEK293T): 12.6 ± 0.8 µM; accumulation of cells in the subG1 phase (apoptotic cells) (MCF-7 cells; 12b 10 µM, 48 h, data not shown): ≤ 15%; effect on G1 phase of cell cycle (MCF-7 cells; [1]): G1 delay; effect on percentage of cells in S phase (MCF-7 cells; [1]): reduction in cells in the S phase; effect on G2/M phase of cell cycle (MCF-7 cells; after 48 h): additional accumulation of cells in the G2/M phase
COc1cc(-c2nc(Cn3cc(CN4C(=O)c5ccc(C)cc5C4=O)nn3)cc3c2[nH]c2ccccc23)cc(OC)c1OC [β-carboline–triazole hybrid]									IC50 (HT-29): 3.67 µM; IC50 (HGC-27): 5.44 µM
Cc1nc(Cn2cc(COc3cc(=O)oc4ccc(F)cc34)nn2)cc2c1[nH]c1ccccc12 [5d, 6-Fluoro-4-((1-((1-methyl-9H-pyrido[3,4-b]indol-3-yl)methyl)-1H-1,2,3-triazol-4-yl)methoxy)-2H-chromen-2-one]	<0.1	<0.1	> 50 µM	> 50 µM	> 50 µM	7 ± 1.6 µM	259 to 261.5 °C (dec.)		
COc1ccc2c3ccnc(C)c3n(Cc3cn(-c4cc(=O)oc5ccccc45)nn3)c2c1 [13a, 4-(4-((7-Methoxy-1-methyl-9H-pyrido[3,4-b]indol-9-yl)methyl)-1H-1,2,3-triazol-1-yl)-2H-chromen-2-one]	3.6	0.4	19.6 ± 1.3 µM	> 50 µM	3.4 ± 0.6 µM	12.4 ± 1.1 µM	239 to 243.5 °C (dec.)	34 ± 2.1 µM	
COc1ccc2c3ccnc(C)c3n(Cc3cn(-c4cc(=O)oc5ccc(F)cc45)nn3)c2c1 [13d, 6-Fluoro-4-(4-((7-methoxy-1-methyl-9H-pyrido[3,4-b]indol-9-yl)methyl)-1H-1,2,3-triazol-1-yl)-2H-chromen-2-one]	0.3	1.5	3.1 ± 0.5 µM	3.3 ± 0.4 µM	12.7 ± 0.6 µM	3.9 ± 0.3 µM	235 to 237 °C (dec.)	2.7 ± 0.5 µM	activity against MCF-7, fold stronger than 5-FU (MCF-7; compared with 5-FU IC50): 9–13 fold; activity against MCF-7, fold higher than harmine (MCF-7; compared with harmine IC50): 5–7 fold
O=c1cc(OCc2cn(Cc3nccc4c3[nH]c3ccccc34)nn2)c2cc(F)ccc2o1 [4d, 4-((1-((9H-Pyrido[3,4-b]indol-1-yl)methyl)-1H-1,2,3-triazol-4-yl)methoxy)-6-fluoro-2H-chromen-2-one]	1.4	<0.9	> 50 µM	> 50 µM	33.1 ± 7.7 µM	45.8 ± 0.2 µM	239.5 to 241 °C (dec.)	> 50 µM	
O=c1cc(-c2nccc3c2[nH]c2ccccc23)c2cc(Cl)ccc2o1 [coumarin–β-carboline hybrid]									GI50 (HeLa): 67.5 µM
COc1ccc2c3ccnc(C)c3n(Cc3cn(-c4cc(=O)oc5ccc(C)cc45)nn3)c2c1 [13b, 4-(4-((7-Methoxy-1-methyl-9H-pyrido[3,4-b]indol-9-yl)methyl)-1H-1,2,3-triazol-1-yl)-6-methyl-2H-chromen-2-one]	>1	>1	> 50 µM	> 50 µM	> 50 µM	> 50 µM	253 to 255 °C (dec.)	> 50 µM	
Cc1ccc2oc(=O)cc(OCc3cn(Cc4nccc5c4[nH]c4ccccc45)nn3)c2c1 [4b, 4-((1-((9H-Pyrido[3,4-b]indol-1-yl)methyl)-1H-1,2,3-triazol-4-yl)methoxy)-6-methyl-2H-chromen-2-one]	<0.5	0.7	27.3 ± 1.2 µM	> 50 µM	> 50 µM	26 ± 1 µM	246.5 to 251 °C (dec.)	35.7 ± 1 µM	
Cc1ccc2oc(=O)cc(OCc3cn(Cc4cc5c([nH]c6ccccc65)c(C)n4)nn3)c2c1 [5b, 6-Methyl-4-((1-((1-methyl-9H-pyrido[3,4-b]indol-3-yl)methyl)-1H-1,2,3-triazol-4-yl)methoxy)-2H-chromen-2-one]	8.6	<0.6	16.8 ± 1.4 µM	> 50 µM	3.2 ± 0.5 µM	27.3 ± 2.1 µM	263 to 267.5 °C (dec.)	> 50 µM	SIs (selectivity towards cancer cells in comparison to HEK293T) (HEK293T; cancer cell line not specified (MCF-7 or HCT116)): > 7.2
